Patent US10995091B2 (Proximagen, LLC, priority 2010, dated 2021)

molecular target: T1, Human CXCR4 transfected HEK293 cells (Homo sapiens, UniProt P61073); test: CXCR4 functional calcium assay (calcium flux FLIPR, antagonism of SDF1 response); assay type: cell-based; settings: CXCR4 functional activity, antagonism of SDF1 (EC50 concentration), read-out: CXCR4 fKi
T1 construct: expressed in transfected cells; host or cells: HEK293
Protocol: The functional activity of test compounds was routinely tested by measuring the ability of compounds to antagonize CXCR4 activity in a dose dependent manner, using a calcium flux Fluorescent Imaging Plate Reader FLIPR assay.
Human CXCR4 transfected HEK293 cells were cultured in Dulbecco's modified Eagles medium containing 4.5 g/L glucose, L-glutamine, pyruvate, 50 µg/mL Geneticin and 250 µg/mL hygromycin B and maintained at 37° C. in a humidified, 5% CO2 controlled atmosphere. Subcultivations were performed every 2-3 d.
At confluence the cells were lifted using Ca^2+ and Mg^2+ free PBS/0.02% (w/v) EDTA, spun at 1000 rpm for 3 min and resuspended at 2.5×10^5 cells/mL. Cells were plated into a 384 well, poly-d-lysine coated, black with clear bottomed plate (Becton Dickinson) at 7500 cells/well. The plates were incubated overnight at 37° C. under 5% CO2. On the day of the experiment the cells were washed with incubation Buffer (HBSS containing 2.5 mM probenecid, 0.1% w/v BSA and 10 mM HEPES, pH 7.4 at 37° C.). After washing, the cells were loaded with Fluo-4 AM dye (Molecular probes) at 2 µM containing 0.48 µg/mL pluronic acid for 60 min at 37° C. under 5% CO2. After thorough washing with incubation buffer the cells were preincubated for 10 min at 37° C. before use.
A combined agonist/antagonist protocol was used to measure changes in intracellular calcium concentration. Compound (antagonist) was added to the cell plate using a Fluorometric Imaging Plate Reader (FLIPR) (Molecular Devices, Sunnyvale, Calif., USA). Basal fluorescence was recorded every second for 10 seconds prior to compound addition (10 μl) and fluorescence recorded every second for 1 min then every 6 seconds for a further 1 min. SDF1[…] (EC50 concentration) was then added using the FLIPR and fluorescence recorded as described above. Curve-fitting and parameter estimation were carried out using GraphPad Prism 4.0 (GraphPad Software Inc., San Diego, Calif.).

T1 sequence (P61073 whole entry): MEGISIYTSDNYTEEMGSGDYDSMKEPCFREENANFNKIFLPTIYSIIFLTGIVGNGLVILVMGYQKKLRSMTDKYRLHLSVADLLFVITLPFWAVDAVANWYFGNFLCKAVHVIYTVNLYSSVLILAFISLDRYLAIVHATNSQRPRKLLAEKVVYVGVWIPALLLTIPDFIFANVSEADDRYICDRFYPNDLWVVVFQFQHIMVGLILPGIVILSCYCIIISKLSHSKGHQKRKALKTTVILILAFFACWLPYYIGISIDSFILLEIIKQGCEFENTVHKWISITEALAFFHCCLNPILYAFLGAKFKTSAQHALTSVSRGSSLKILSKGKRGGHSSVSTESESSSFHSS

Row | Compound | Ki [µM]
1 | CC(C)N1CCC(N2CC3CCC2CN(c2cccc(C(=O)Nc4ccncc4)n2)C3)CC1 (stereo not shown) [Example 197, 6-{6-[1-(Propan-2-yl)piperidin-4-yl]-3,6-diazabicyclo[3.2.2]nonan-3-yl}-N-(pyridin-4-yl)pyridine-2-carboxamide] | 0.02 to 0.1
2 | O=C(Nc1ccncc1)c1cccc(N2CCCN(C3CCC(N4CCCC4C(F)(F)F)CC3)CC2)n1 (stereo not shown) [Example 257, N-(Pyridin-4-yl)-6-(4-{4-[2-(trifluoromethyl)pyrrolidin-1-yl]cyclohexyl}-1,4-diazepan-1-yl)pyridine-2-carboxamide] | 0.5 to 1
3 | CC(C)N1CCCC(N2CCC(Oc3cccc(C(=O)Nc4ccncc4)n3)CC2)CC1 (stereo not shown) [Example 221, 6-({1-[1-(Propan-2-yl)azepan-4-yl]piperidin-4-yl}oxy)-N-(pyridin-4-yl)pyridine-2-carboxamide] | 0.1 to 0.5
4 | CC(C)N1CCC(N2CC3CC(C2)N(c2cccc(C(=O)NCC4CC4)n2)C3)CC1 (stereo not shown) [Example 200, N-(Cyclopropylmethyl)-6-{3-[1-(propan-2-yl)piperidin-4-yl]-3,6-diazabicyclo[3.2.1]octan-6-yl}pyridine-2-carboxamide] | 0.5 to 1
5 | CC(C)N1CCC(N2CCCN(c3cccc(-c4c[nH]c5ncccc45)n3)CC2)CC1 [Example 101, 1-[1-(Propan-2-yl)piperidin-4-yl]-4-(6-{1H-pyrrolo[2,3-b]pyridine-3-yl}pyridine-2-yl)-1,4-diazepane] | 0.1 to 0.5
6 | COCc1nc(-c2cccc(N3CCCN(C4CCN(C(C)C)CC4)CC3)n2)no1 [Example 163, 1-{6-[5-(Methoxymethyl)-1,2,4-oxadiazol-3-yl]pyridine-2-yl}-4-[1-(propan-2-yl)piperidin-4-yl]-1,4-diazepane] | 0.1 to 0.5
7 | CC(C)N1CCC(N2CCCN(c3cccc(-c4cc5ccccc5n4C)n3)CC2)CC1 [Example 95, 1-Methyl-2-(6-{4-[1-(propan-2-yl)piperidin-4-yl]-1,4-diazepan-1-yl}pyridine-2-yl)-1H-indole] | 0.1 to 0.5
8 | OCc1cccc(N2CCCN(C3CCN(Cc4ccccc4Cl)CC3)CC2)n1 [Example 260, [6-(4-{1-[(2-Chlorophenyl)methyl]piperidin-4-yl}-1,4-diazepan-1-yl)pyridin-2-yl]methanol] | 0.5 to 1
9 | CC(C)N1CCC(N2CCCN(c3cccc(C(=O)NC4CCOCC4)n3)CC2)CC1 [Example 2, N-(Oxan-4-yl)-6-{4-[1-(propan-2-yl)piperidin-4-yl]-1,4-diazepan-1-yl}pyridine-2-carboxamide] | 0.1 to 0.5
10 | CC(C)(N1CCC(N2CCCN(c3cccc(C(=O)NCc4cccnc4)n3)CC2)CC1)C(F)(F)F [Example 91, N-(Pyridin-3-ylmethyl)-6-{4-[1-(1,1,1-trifluoro-2-methylpropan-2-yl)piperidin-4-yl]-1,4-diazepan-1-yl}pyridine-2-carboxamide] | 0.1 to 0.5
11 | CC(C)N1CCCC(N2CCN(c3cccc(C(=O)Nc4ccncc4)n3)CC2)CC1 (stereo not shown) [Example 242, 6-{4-[1-(Propan-2-yl)azepan-4-yl]piperazin-1-yl}-N-(pyridin-4-yl)pyridine-2-carboxamide] | 0.1 to 0.5
12 | O=C(NCC1CC1)c1cccc(N2CCCN(C3CCN(Cc4ccccc4Cl)CC3)CC2)n1 [Example 132, 6-(4-{1-[(2-Chlorophenyl)methyl]piperidin-4-yl}-1,4-diazepan-1-yl)-N-(cyclopropylmethyl)pyridine-2-carboxamide] | 0.02 to 0.1
13 | CCNC(=O)c1cccc(N2CCCN(C3CCN(C(C)C)CC3)CC2)n1 [Example 4, N-Ethyl-6-{4-[1-(propan-2-yl)piperidin-4-yl]-1,4-diazepan-1-yl}pyridine-2-carboxamide] | 0.1 to 0.5
14 | O=C(NCC1CC1)c1cccc(N2CCCN(C3CCN([C@@H]4CCc5ccccc54)CC3)CC2)n1 [Example 76, N-(Cyclopropylmethyl)-6-(4-{1-[(1R)-2,3-dihydro-1H-inden-1-yl]piperidin-4-yl}-1,4-diazepan-1-yl)pyridine-2-carboxamide] | 0.02 to 0.1
15 | N#Cc1cccc(N2CCCN(C3CCN(Cc4ccccc4Cl)CC3)CC2)n1 [Example 259, 6-(4-{1-[(2-Chlorophenyl)methyl]piperidin-4-yl}-1,4-diazepan-1-yl)pyridine-2-carbonitrile] | 0.5 to 1

The remaining lines, values ahead:

Row | Ki [µM] | Compound
16 | 0.02 to 0.1 | CC(C)N1CCC(N2CCCN(c3cccc(C(=O)Nc4ccccc4O)n3)CC2)CC1 [Example 24, N-(2-Hydroxyphenyl)-6-{4-[1-(propan-2-yl)piperidin-4-yl]-1,4-diazepan-1-yl}pyridine-2-carboxamide]
17 | 0.02 to 0.1 | CCc1nc(-c2cccc(N3CCCN(C4CCN(C(C)C)CC4)CC3)n2)[nH]c1CC [Example 120, 1-[6-(4,5-Diethyl-1H-imidazol-2-yl)pyridine-2-yl]-4-[1-(propan-2-yl)piperidin-4-yl]-1,4-diazepane]
18 | < 0.02 | [2H]C1([2H])CCN(c2cccc(C(=O)Nc3ccncc3)n2)CCN1C1CCN(Cc2ccc(F)cc2Cl)CC1 [Example 203, 6-(4-{1-[(2-Chloro-4-fluorophenyl)methyl]piperidin-4-yl}-5,5-dihydrogenio-1,4-diazepan-1-yl)-N-(pyridin-4-yl)pyridine-2-carboxamide]
19 | < 0.02 | Cc1cc(NC(=O)c2cccc(N3CCCN(C4CCN(Cc5ccccc5Cl)CC4)CC3)n2)ccn1 [Example 84, 6-(4-{1-[(2-Chlorophenyl)methyl]piperidin-4-yl}-1,4-diazepan-1-yl)-N-(2-methylpyridine-4-yl)pyridine-2-carboxamide]
20 | < 0.02 | O=C(NCC1CCOCC1)c1cccc(N2CCCN(C3CCN(Cc4ccccc4Cl)CC3)CC2)n1 [Example 47, 6-(4-{1-[(2-Chlorophenyl)methyl]piperidin-4-yl}-1,4-diazepan-1-yl)-N-(oxan-4-ylmethyl)pyridine-2-carboxamide]
21 | 0.02 to 0.1 | CCCc1cnc(-c2cccc(N3CCCN(C4CCN(C(C)C)CC4)CC3)n2)[nH]1 [Example 109, 1-[1-(Propan-2-yl)piperidin-4-yl]-4-[6-(4-propyl-1H-imidazol-2-yl)pyridine-2-yl]-1,4-diazepane]
22 | 0.02 to 0.1 | CC(C)N1CCC(N2CCCN(c3cccc(C(=O)NCC4CC4)n3)CC2C)CC1 (stereo not shown) [Example 194, N-(Cyclopropylmethyl)-6-{3-methyl-4-[1-(propan-2-yl)piperidin-4-yl]-1,4-diazepan-1-yl}pyridine-2-carboxamide]
23 | 0.02 to 0.1 | O=C(Nc1cccnc1)c1cccc(N2CCCN(C3CCN(Cc4ccccc4Cl)CC3)CC2)n1 [Example 53]
24 | < 0.02 | CC[C@@H](C)N1CCC(N2CCCN(c3cccc(C(=O)Nc4ccncc4)n3)CC2)CC1 [Example 78, 6-(4-{1-[(2R)-Butan-2-yl]piperidin-4-yl}-1,4-diazepan-1-yl)-N-(pyridine-4-yl)pyridine-2-carboxamide]
25 | 0.02 to 0.1 | COc1ccccc1CN1CCC(N2CCCN(c3cccc(C(=O)NCC4CC4)n3)CC2)CC1 [Example 133, N-(Cyclopropylmethyl)-6-(4-{1-[(2-methoxyphenyl)methyl]piperidin-4-yl}-1,4-diazepan-1-yl)pyridine-2-carboxamide]
26 | 0.02 to 0.1 | Cc1cc(NC(=O)c2cccc(N3CCCN(C4CCN(Cc5ccccc5Cl)CC4)CC3)n2)cc(C)n1 [Example 85, 6-(4-{1-[(2-Chlorophenyl)methyl]piperidin-4-yl}-1,4-diazepan-1-yl)-N-(2,6-dimethylpyridin-4-yl)pyridine-2-carboxamide]
27 | < 0.02 | [2H]C1([2H])CCN(c2cccc(C(=O)Nc3ccncc3)n2)CCN1C1CCN([C@H](C)CC)CC1 [Example 188, 6-(4-{1-[(2R)-Butan-2-yl]piperidin-4-yl}-5,5-dihydrogenio-1,4-diazepan-1-yl)-N-(pyridin-4-yl)pyridine-2-carboxamide]
28 | < 0.02 | [2H]C1([2H])CCN(c2cccc(C(=O)Nc3ccncc3)n2)CCN1C1CCN(Cc2ccccc2Cl)CC1 [Example 204, 6-(4-{1-[(2-Chlorophenyl)methyl]piperidin-4-yl}-5,5-dihydrogenio-1,4-diazepan-1-yl)-N-(pyridin-4-yl)pyridine-2-carboxamide]
29 | < 0.02 | CCC(C)N1CCC(N2CCCN(c3cccc(C(=O)NCC4CC4)n3)CC2)CC1 (stereo not shown) [Example 65, 6-{4-[1-(Butan-2-yl)piperidin-4-yl]-1,4-diazepan-1-yl}-N-(cyclopropylmethyl)pyridine-2-carboxamide]
30 | < 0.02 | [2H]C1([2H])CCN(c2cccc(C(=O)Nc3ccncc3)n2)CCN1C1CCN([C@@H](C)CC)CC1 [Example 189, 6-(4-{1-[(2S)-Butan-2-yl]piperidin-4-yl}-5,5-dihydrogenio-1,4-diazepan-1-yl)-N-(pyridin-4-yl)pyridine-2-carboxamide]
31 | < 0.02 | O=C(Nc1ccncc1)c1cccc(N2CC[C@@H](NC[C@@H]3CCN(C4CCCC4)C3)C2)n1 [Example 226, 6-[(3R)-3-({[(3S)-1-Cyclopentylpyrrolidin-3-yl]methyl}amino)pyrrolidin-1-yl]-N-(pyridin-4-yl)pyridine-2-carboxamide]
